Measured values from patent US20110294794A1, “TREATMENT OF PROTEINOPATHIES USING A FARNESYL TRANSFERASE INHIBITOR” (Link Medicine Corporation, priority 2008, published 2011).
“Also recorded” adds a separate entry of the source.

Test system: Aβ
Assay: Aβ pathology in APP/PS1 transgenic mice (6E10, Thioflavin-S, ELISA)
Assay type: in vivo, mouse
Conditions: 0.9 mg/kg once every 24 hr, two months
Description: Immunohistochemistry and quantification of stained cells: For evaluation of α-synuclein immunoreactivity (IR), 5 sagittal cryo-cut sections (10 μm slice thickness) from five different layers were used for counting of IR cells in the cortex and hippocampus. Brain sections were stained with a monoclonal human α-synuclein specific antibody (Alexis®; Cat# 804-258-L001; dilution 1:5), followed by a secondary Ab Cy 2-Goat Anti-Rat (Jackson ImmunoResearch®; dilution 1:200). IR positive cells were quantified using specialized image analysis software (Image Pro Plus, version 4.5.1.29). […] Images were evaluated with ImageProPlus (version 6.2) image analysis software. For APP/PS1 transgenic animals sagittal hemisections (40 μm) were collected and processed for Aβ immunohistochemistry using an 6E10 antibody, Thioflavin-S staining Primary antibodies were detected by the ABC method.
ELISA quantification of α-Synuclein in the α-Synuclein transgenic animals: Brain homogenate was centrifuged and the supernatant saved as fraction F1. […] Raw absorbance (405 nm) was then normalized to the total protein concentration of each sample. […] To quantify the amount of human Aβ-40 and Aβ-42, ELISA kits were used (The Genetics Company, Zurich, Switzerland). […]

C#Cc1cccc(-c2cc(=O)n(C)c3ccc([C@](O)(c4ccc(Cl)cc4)c4cncn4C)cc23)c1 [LNK-754-TS, (R)-6-[(4-chlorophenyl)-hydroxyl-(1-methyl-1-H-imidazol-5-yl)-methyl]-4-(3-ethynylphenyl)-1-methyl-2-(1H)-quinonlinone (2S,3S)-dihydroxybutanedioate]
levels of Aβ40/Aβ42 extracted from whole brain fractions (Elisa): no statistically significant changes | number of Aβ (6E10) immunoreactive plaques in the subiculum vs. vehicle: lesser, but still significant, effect; also recorded: significant decrease
